Data taken from EP0025288A1, “Derivatives of monic acid, processes for their preparation, compositions containing them and their preparation” (priority 1979, dated 1981).
Converted amounts (≈) assume the structure as drawn.

Assays:
[1] = system: E coli E1; assay: MIC, veterinary bacteria; type: cell-based; details: veterinary bacteria (Table 2), read-out: MIC
[2] = system: S dublin S7; assay: MIC, veterinary bacteria; type: cell-based; details: veterinary bacteria (Table 2), read-out: MIC
[3] = system: S typhimurium S18; assay: MIC, veterinary bacteria; type: cell-based; details: veterinary bacteria (Table 2), read-out: MIC
[4] = system: Past multocida PA1; assay: MIC, veterinary bacteria; type: cell-based; details: veterinary bacteria (Table 2), read-out: MIC
[5] = system: Past Haemolytica PA5; assay: MIC, veterinary bacteria; type: cell-based; details: veterinary bacteria (Table 2), read-out: MIC
[6] = system: Corynebacterium pyogenes CY1; assay: MIC, veterinary bacteria; type: cell-based; details: veterinary bacteria (Table 2), read-out: MIC
[7] = system: Staph aureus B4 (pen resis); assay: MIC, veterinary bacteria; type: cell-based; details: Staphylococcus aureus, veterinary bacteria (Table 2), read-out: MIC
[8] = system: Staph aureus 152 (pen sens); assay: MIC, veterinary bacteria; type: cell-based; details: Staphylococcus aureus, veterinary bacteria (Table 2), read-out: MIC
[9] = system: Staph aureus Oxford; assay: MIC, veterinary bacteria; type: cell-based; details: Staphylococcus aureus, veterinary bacteria (Table 2), read-out: MIC
[10] = system: Strep suis (group D) SPS11; assay: MIC, veterinary bacteria; type: cell-based; details: veterinary bacteria (Table 2), read-out: MIC
[11] = system: Strep dysgalaciae SPD1; assay: MIC, veterinary bacteria; type: cell-based; details: veterinary bacteria (Table 2), read-out: MIC
[12] = system: Strep agalactiae SPA1; assay: MIC, veterinary bacteria; type: cell-based; details: veterinary bacteria (Table 2), read-out: MIC
[13] = system: M. suipneumoniae NB12; assay: MIC, anti-mycoplasmal, Friis broth solidified with 0.9% agarose; type: cell-based; details: Mesomycoplasma hyopneumoniae, 144 h, inoculum 10^3 to 10^5 C.F.U., 6 days incubation at 37°C, read-out: in vitro MIC
[14] = system: M. suipneumoniae JF 435; assay: as above; type: cell-based; details: Mesomycoplasma hyopneumoniae, JF435, 144 h, inoculum 10^3 to 10^5 C.F.U., 6 days incubation at 37°C, read-out: in vitro MIC
[15] = system: M. suipneumoniae HK(2); assay: as above; type: cell-based; details: Mesomycoplasma hyopneumoniae, 144 h, inoculum 10^3 to 10^5 C.F.U., 6 days incubation at 37°C, read-out: in vitro MIC
[16] = system: M. suipneumoniae Str. 11; assay: as above; type: cell-based; details: Mesomycoplasma hyopneumoniae, 144 h, inoculum 10^3 to 10^5 C.F.U., 6 days incubation at 37°C, read-out: in vitro MIC
[17] = system: M. suipneumoniae J2206/183b; assay: as above; type: cell-based; details: Mesomycoplasma hyopneumoniae, 144 h, inoculum 10^3 to 10^5 C.F.U., 6 days incubation at 37°C, read-out: in vitro MIC
[18] = system: M. suipneumoniae PW/C/210; assay: as above; type: cell-based; details: Mesomycoplasma hyopneumoniae, 144 h, inoculum 10^3 to 10^5 C.F.U., 6 days incubation at 37°C, read-out: in vitro MIC
[19] = system: M. suipneumoniae LABER; assay: as above; type: cell-based; details: Mesomycoplasma hyopneumoniae, 144 h, inoculum 10^3 to 10^5 C.F.U., 6 days incubation at 37°C, read-out: in vitro MIC
[20] = system: M. suipneumoniae UCD 1; assay: as above; type: cell-based; details: Mesomycoplasma hyopneumoniae, UCD1, 144 h, inoculum 10^3 to 10^5 C.F.U., 6 days incubation at 37°C, read-out: in vitro MIC
[21] = system: M. suipneumoniae TAM 6N; assay: as above; type: cell-based; details: Mesomycoplasma hyopneumoniae, TAM6N, 144 h, inoculum 10^3 to 10^5 C.F.U., 6 days incubation at 37°C, read-out: in vitro MIC
[22] = system: M. suipneumoniae ATCC 25095; assay: as above; type: cell-based; details: Mesomycoplasma hyopneumoniae, ATCC25095, 144 h, inoculum 10^3 to 10^5 C.F.U., 6 days incubation at 37°C, read-out: in vitro MIC
[23] = system: M. suipneumoniae NCTC 10110; assay: as above; type: cell-based; details: Mesomycoplasma hyopneumoniae, NCTC10110, 144 h, inoculum 10^3 to 10^5 C.F.U., 6 days incubation at 37°C, read-out: in vitro MIC
[24] = system: M. hyorhinis ATCC 23234; assay: as above; type: cell-based; details: Mesomycoplasma hyorhinis, ATCC23234, 144 h, inoculum 10^3 to 10^5 C.F.U., 6 days incubation at 37°C, read-out: in vitro MIC
[25] = system: M. hyorhinis ATCC 25021; assay: as above; type: cell-based; details: Mesomycoplasma hyorhinis, ATCC25021, 144 h, inoculum 10^3 to 10^5 C.F.U., 6 days incubation at 37°C, read-out: in vitro MIC
[26] = system: M. bovis NCTC 10131; assay: microbe, parasite or virus in culture; type: cell-based; details: NCTC10131, 144 h, read-out: in vitro MIC
[27] = system: M. bovigenitalium ATCC 14173; assay: MIC, anti-mycoplasmal, Friis broth solidified with 0.9% agarose; type: cell-based; details: 144 h, inoculum 10^3 to 10^5 C.F.U., 6 days incubation at 37°C, read-out: in vitro MIC
[28] = system: M. pneumoniae ATCC 15492; assay: as above; type: cell-based; details: Mycoplasmoides pneumoniae, ATCC15492, 144 h, inoculum 10^3 to 10^5 C.F.U., 6 days incubation at 37°C, read-out: in vitro MIC
[29] = Serum binding by ultrafiltration; type: in vitro ADME, pig; details: pig, serum, compounds at 8 mcg/ml, microbiological assay (B. subtilis ATCC 6633), read-out: % bound to pig serum (converted)
Description: Serum binding was assessed by ultrafiltration of procine serum containing compounds at 8 mcg/ml, and through an Amicon CF50A ultrafiltration cone. Separation of ultrafiltrate was achieved by centrifugation.

[30] = Mean serum concentration in neonatal piglets after intramuscular or oral administration; type: in vivo; details: pig, 50 mg/kg; for concentration at 1 h: 60'
Description: e) Mean serum concentration in neonatal piglets of Examples 4 and 5 after intramuscular or oral administration at 50 mg/kg
Blood levels were assessed in neonatal piglets (2 to 4 animals per group and man bodyweights about 2 kg). The dose was 50 mg/kg (dose solution = 25 mg/ml in 25% ethanol). Doses were given by intramuscular injection and orally by stomach tube. Piglets were bled at intervals up to 8 and at 24 hours, and serum assayed microbiologically (B. subtilis ATCC 6633).

For CC(=CC(=O)OCCCC(=O)c1ccccc1)CC1OCC(CC2OC2C(C)C(C)O)C(O)C1O (stereo not shown) [Example 5, 4-Phenylbutan-4-onyl monate A], the MIC [1] was 80 µg/mL (≈ 163 µM), the MIC [2] was > 80 µg/mL and the MIC [3] was 80 µg/mL (≈ 163 µM). The MIC [4] was 1.25 µg/mL (≈ 2.55 µM), the MIC [5] was 10 µg/mL (≈ 20.4 µM) and the MIC [6] was > 80 µg/mL. The MIC [7] was 0.156 µg/mL (≈ 0.318 µM), the MIC [8] was 0.156 µg/mL (≈ 0.318 µM) and the MIC [9] was 0.156 µg/mL (≈ 0.318 µM). For the same molecule, the MIC [10] was 5 µg/mL (≈ 10.2 µM), the MIC [11] was 0.07 µg/mL (≈ 0.143 µM) and the MIC [12] was 0.625 µg/mL (≈ 1.27 µM). The MIC [13] was 0.5 µg/mL (≈ 1.02 µM), the MIC [14] was 0.5 µg/mL (≈ 1.02 µM) and the MIC [15] was 0.5 µg/mL (≈ 1.02 µM). The MIC [16] was 0.25 µg/mL (≈ 0.51 µM), the MIC [17] was 0.5 µg/mL (≈ 1.02 µM) and the MIC [18] was 0.25 µg/mL (≈ 0.51 µM). The MIC [19] was 0.25 µg/mL (≈ 0.51 µM), the MIC [20] was 0.5 µg/mL (≈ 1.02 µM) and the MIC [21] was 0.5 µg/mL (≈ 1.02 µM). The MIC [22] was 0.25 µg/mL (≈ 0.51 µM), the MIC [23] was 0.5 µg/mL (≈ 1.02 µM) and the MIC [24] was 0.25 µg/mL (≈ 0.51 µM). The MIC [25] was 0.25 µg/mL (≈ 0.51 µM), the MIC [26] was ≤ 0.01 µg/mL and the MIC [27] was 0.025 µg/mL (≈ 0.051 µM). The MIC [28] was 1 µg/mL (≈ 2.04 µM), the fraction unbound [29] was 0.036 and the concentration at 10 min ([30]; im) was 1900 ng/mL. The concentration at 20 min ([30]; im) was 2300 ng/mL, the concentration at 40 min ([30]; im) was 1500 ng/mL and the concentration at 1 h ([30]; im) was 1200 ng/mL. The concentration at 2 h ([30]; im) was 570 ng/mL, the concentration at 3 h ([30]; im) was 380 ng/mL and the concentration at 4 h ([30]; im) was 330 ng/mL. The concentration at 6 h ([30]; im) was 310 ng/mL, the concentration at 8 h ([30]; im) was 180 ng/mL and the concentration at 24 h ([30]; im) was < 200 ng/mL. It also gave a concentration at 10 min ([30]; po) of 1200 ng/mL, a concentration at 20 min ([30]; po) of 1200 ng/mL and a concentration at 40 min ([30]; po) of 1200 ng/mL. The concentration at 1 h ([30]; po) was 860 ng/mL, the concentration at 2 h ([30]; po) was 230 ng/mL and the concentration at 3 h ([30]; po) was 160 ng/mL. It also gave a concentration at 4 h ([30]; po) of 80 ng/mL, a concentration at 6 h ([30]; po) of 50 ng/mL and a concentration at 8 h ([30]; po) of 30 ng/mL. For the same molecule, the concentration at 24 h ([30]; po) was < 200 ng/mL.
